In patent publication EP4721741A1, “PHARMACEUTICAL COMPOSITION, TOPICAL PREPARATION, AND PREPARATION METHOD THEREFOR AND USE THEREOF” (Lynk Pharmaceuticals Co. Ltd., priority 2023, dated 2024):

Assay: Pharmacokinetic (PK) study after topical application: plasma, stratum corneum, epidermis, dermis
Assay type: in vivo, Bama miniature pigs
Protocol: Twenty-four (12 per sex) male and female Bama miniature pigs were divided into 5 groups. The ointment was applied to an estimated 10% of the animal's body surface area.
Animals in group 1 and group 2 received a single topical application of sample 2A and sample 2B, respectively. Plasma, stratum corneum, epidermis, and dermis samples were collected before administration (0 hour, plasma only) and at 0.5, 1, 4, 8, 12, and 24 hours after administration.
Group 3 animals were topically administered ointment sample 2B once daily for 7 consecutive days. Plasma samples were collected on day 1 and day 7 before administration (0) and 0.5, 1, 4, 8, 12, and 24 hours after administration; and on days 3, 4, 5, and 6 before administration (0). […]
Group 5 animals received a single topical application of sample 3a (administered at 25 µL/m^2 with a concentration of 6 mg/mL), and blood and skin samples were collected before administration (0) and at 0.5, 1, 3, and 6 hours after administration. […] The homogenized samples were extracted using three volumes of acetonitrile and quantified against a standard curve utilizing an LC-MS/MS system.
The concentrations of the active pharmaceutical ingredient in plasma, stratum corneum, epidermis, and dermis samples were determined using a high-performance liquid chromatography-[…] (LC-MS/MS) method.

Cc1cnc(Nc2cnn(C3CC(C)(C)OC(C)(C)C3)c2)nc1-c1ccc(C(=O)NCC#N)cc1 [active pharmaceutical ingredient]
accumulation: exposure levels (AUC0-last and Cmax) in the stratum corneum, epidermis, and dermis (7 consecutive days of once-daily topical application of the ointment at 12 µg/cm^2, both sexes): no accumulation
Concentrations in plasma samples (all plasma samples, topical application, Bama miniature pigs): below the lower limit of quantification
